Common to all, as to assay: growth of human tumour cells (NCI), 48 h
Assay [1] has as its system UACC-62.
The test system of assay [2] is MDA-N.
The test system of assay [3] is OVCAR-8.
For assay [4], the system named is SW-620.
For assay [5], the system named is SF-268.
Assay [6] relates to U-251.
In assay [7] the test system is HT-29.
In assay [8] the test system is NCI/ADR-RES.
The subject of assay [9] is LOX IMVI.
The test system of assay [10] is CCRF-CEM.
In assay [11] the test system is MDA-MB-435.
For assay [12], the system named is SK-MEL-5.
The subject of assay [13] is 786-0.
In assay [14] the test system is CAKI-1.
In assay [15] the test system is UO-31.
The test system of assay [16] is SNB-75.
For assay [17], the system named is MDA-MB-231.
Assay [18] deals with SF-539.
Assay [19] deals with SK-MEL-2.
Assay [20] deals with SR.

The results in this text go back to ChEMBL document CHEMBL1201862, “PubChem BioAssay data set” (2004).

Molecules are shown by their SMILES.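 These data come from cells grown in 96-well plates and exposed to compound for 48 hours at five concentrations. GI50 marks 50% less growth.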 Activity calls are given as the source filed them. No stated cut-off is given here; in the data, active = GI50 up to about 1.1 µM and inactive = higher.

Turning to `CC(=O)Nc1ccc2c(c1)/C(=N/c1ccc(C(=O)O)cc1)c1ccccc1-2`, the GI50 in [1] is 91.4 µM (inactive); in assay [2] it was > 100 µM (inactive); in [3], 76.7 µM (inactive); in [4] it was > 100 µM (inactive); in assay [5], > 100 µM (inactive); in [6] it was > 100 µM (inactive). Moreover, the GI50 in assay [7] was 59.6 µM (inactive); in [8], 95.1 µM (inactive); in assay [9], 50.9 µM (inactive); in assay [10] it was 26.4 µM (inactive); in [11], > 100 µM (inactive); in assay [12], 25.8 µM (inactive). Also, the GI50 was > 100 µM (inactive) in assay [13], > 100 µM (inactive) in [14] and 38.3 µM (inactive) in [15].
As to `CC(C)(C)c1ccc2c(c1)C(=O)c1ccccc1C2=O`, the GI50 is 16.2 µM (inactive) in assay [16]; 42 µM (inactive) in [1]; 37.5 µM (inactive) in [2]; 44.5 µM (inactive) in assay [3]; > 100 µM (inactive) in assay [4]; 39.4 µM (inactive) in assay [5]. In addition, the GI50 in assay [6] is 50 µM (inactive); in assay [7], 27.2 µM (inactive); in assay [8] it was 32.7 µM (inactive); in assay [9], 41.4 µM (inactive); in assay [17], > 100 µM (inactive); in assay [10], 57.1 µM (inactive). Also, the GI50 was > 100 µM (inactive) in [18]; 35.9 µM (inactive) in [11]; 18.1 µM (inactive) in assay [12]; > 100 µM (inactive) in assay [13]; > 100 µM (inactive) in [14]; > 100 µM (inactive) in assay [15].
As to `C=C1C(=O)OC2C1CCC(C)C1(O)C=CC(=O)C21C` (centres undefined), the GI50 was 6.65 µM (inactive) in assay [16]; 6.68 µM (inactive) in assay [1]; 6.85 µM (inactive) in [2]; 3.5 µM (inactive) in [3]; 3.44 µM (inactive) in assay [4]; > 10 µM (inactive) in assay [5]. The GI50 is > 10 µM (inactive) in assay [6]; > 10 µM (inactive) in assay [19]; > 10 µM (inactive) in [7]; 3.95 µM (inactive) in assay [8]; > 10 µM (inactive) in assay [9]; 2.73 µM (inactive) in assay [10]. Also, the GI50 in assay [18] was > 10 µM (inactive); in assay [11] it was > 10 µM (inactive); in assay [12] it was > 10 µM (inactive); in assay [13], 6.11 µM (inactive); in assay [15], 3.24 µM (inactive); in [20] it was 3.13 µM (inactive).
`C[C@@]1(OC(=O)c2cc([N+](=O)[O-])cc([N+](=O)[O-])c2)C[C@@H]2CCCC[C@@H]21`: the GI50 in [16] is 48.2 µM (inactive); in assay [1], > 100 µM (inactive); in assay [2], > 100 µM (inactive); in [3], > 100 µM (inactive); in assay [4], > 100 µM (inactive); in assay [5] it was > 100 µM (inactive). Further, the GI50 in assay [6], in [19], in [7], in [8], in assay [9] and in assay [17] was > 100 µM (inactive) each time. Further, the GI50 in assay [10] was > 100 µM (inactive); in assay [18], > 100 µM (inactive); in assay [12], 83.8 µM (inactive); in [13], > 100 µM (inactive); in assay [14], > 100 µM (inactive); in [15], > 100 µM (inactive). Further, in assay [20], the GI50 is > 100 µM (inactive).
As for `Cc1sc(N/N=C2\C(=O)Nc3ccccc32)nc1-c1ccccc1`, the GI50 is 19.7 µM (inactive) in assay [16]; 13.7 µM (inactive) in assay [1]; 19.4 µM (inactive) in [2]; 17.5 µM (inactive) in assay [3]; 23.6 µM (inactive) in assay [4]; 13.6 µM (inactive) in [5]. The GI50 in [6] is 11 µM (inactive); in assay [19] it was 18.7 µM (inactive); in assay [7] it was 20.3 µM (inactive); in [8] it was 17 µM (inactive); in [9], 12.6 µM (inactive); in assay [17], 14.5 µM (inactive). Moreover, the GI50 in [18] was 18.8 µM (inactive); in assay [11] it was 19.6 µM (inactive); in assay [12], 12.6 µM (inactive); in [13] it was 17.4 µM (inactive); in [14] it was 17.4 µM (inactive); in [15], 13.6 µM (inactive).
For the compound `COc1cc(Cc2nccc3cc(OC)c(OC)cc23)c(/N=N/N(C)C)cc1OC`, the GI50 in assay [16] is 34 µM (inactive); in [1] it was 13.2 µM (inactive); in assay [2], 19 µM (inactive); in assay [3], 15.7 µM (inactive); in [4], 7.94 µM (inactive); in [5], 22.1 µM (inactive). Also, the GI50 in [6] is 19.1 µM (inactive); in assay [19] it was 30.6 µM (inactive); in assay [7] it was 10.4 µM (inactive); in [8] it was 23.1 µM (inactive); in assay [17], 14.4 µM (inactive); in assay [10] it was 3.18 µM (inactive). The GI50 in assay [11] was 18.5 µM (inactive); in assay [12], 12.1 µM (inactive); in assay [13], 4 µM (inactive); in [14] it was 5.45 µM (inactive); in assay [15], 10 µM (inactive).
For the compound `CCOc1nnnc2[nH]cnc12`, the GI50 in assay [16], in assay [1], in assay [2], in assay [3], in assay [4] and in assay [5] was > 100 µM (inactive) throughout. In addition, the GI50 in assay [6], in assay [19], in [7], in assay [8], in assay [9] and in [17] was > 100 µM (inactive) in each case. Moreover, the GI50 in [18], in assay [11], in assay [12], in [13], in assay [14] and in [15] was > 100 µM (inactive) each time.
Consider `O=C1c2ccccc2-c2c1c(-c1ccc([N+](=O)[O-])cc1)nc1ccc3ccccc3c21`, for which the GI50 in assay [16], in assay [1], in assay [2], in assay [3], in assay [4] and in [5] was > 100 µM (inactive) throughout. Also, the GI50 in assay [6], in assay [19], in [7], in assay [8], in assay [17] and in assay [10] was > 100 µM (inactive) each time. Moreover, the GI50 in assay [18], in assay [11], in [13], in assay [14] and in assay [15] was > 100 µM (inactive) throughout.
For the compound `C/C=C1/CN2CCC34C(=C(C(=O)OC)C1CC23)Nc1ccc(O)cc14` (centres undefined), the GI50 was > 100 µM (inactive) in [16]; > 100 µM (inactive) in assay [1]; > 100 µM (inactive) in assay [2]; > 100 µM (inactive) in assay [3]; > 100 µM (inactive) in assay [4]; 61.8 µM (inactive) in [5]. In addition, the GI50 in assay [6], in [19], in assay [7], in assay [8], in [9] and in [17] was > 100 µM (inactive) each time. The GI50 was > 100 µM (inactive) in assay [10]; > 100 µM (inactive) in assay [18]; > 100 µM (inactive) in assay [11]; > 100 µM (inactive) in [12]; 59.3 µM (inactive) in assay [13]; > 100 µM (inactive) in [14]. Also, the GI50 in assay [15] was > 100 µM (inactive).
Turning to `CSc1c(C#N)c(N)n2c1C(=O)N(c1ccccc1)C2=S`, the GI50 in assay [16] is 53.3 µM (inactive); in [1], > 100 µM (inactive); in assay [2] it was > 100 µM (inactive); in assay [3], 92.9 µM (inactive); in assay [4], 85.1 µM (inactive); in [5] it was 88.1 µM (inactive). The GI50 is 41.9 µM (inactive) in assay [6]; 90.2 µM (inactive) in assay [7]; 80.5 µM (inactive) in assay [8]; 72.1 µM (inactive) in assay [9]; 20.3 µM (inactive) in [17]; 68.2 µM (inactive) in assay [10]. The GI50 in assay [18] was 92.7 µM (inactive); in [11], > 100 µM (inactive); in [12] it was > 100 µM (inactive); in [13] it was 32.6 µM (inactive); in assay [14], 77.1 µM (inactive); in [15], > 100 µM (inactive).
Regarding `CC(C)C[C@H](NC(=O)[C@@H](N)Cc1cccc2ccccc12)B(O)O`, the GI50 in [16] is 0.0259 µM (active); in [1] it was 0.0482 µM (active); in assay [2] it was 0.182 µM (active); in assay [3] it was 0.0719 µM (active); in [4], < 0.015 µM (active); in [6], 0.0416 µM (active). Besides, the GI50 is 0.0399 µM (active) in assay [19]; < 0.0178 µM (active) in assay [7]; < 0.0179 µM (active) in [9]; 0.0354 µM (active) in assay [17]; 0.0143 µM (active) in assay [18]; < 0.0134 µM (active) in assay [11]. The GI50 is < 0.0169 µM (active) in assay [12]; < 0.0216 µM (active) in [13]; < 0.0164 µM (active) in assay [14]; 0.0331 µM (active) in assay [15]; < 0.0154 µM (active) in assay [20].
